In PubChem BioAssay (NCI):
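A five-concentration, 48-hour dose response in 96-well plates underlies each endpoint, interpolated linearly between surrounding concentrations. The concentration for 50% growth inhibition is given as GI50. TGI: total growth inhibition.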

Columns and labels:
Assay in all cases: NCI tumour cell line growth inhibition, 48 h
[1] = system: BT-549 breast
[2] = system: RXF 393 renal
[3] = system: HT29 colon
[4] = system: SK-MEL-5 melanoma
[5] = system: SF-295 CNS
[6] = system: MOLT-4 leukemia
[7] = system: LOX IMVI melanoma
[8] = system: M14 melanoma
[9] = system: KM12 colon
[10] = system: HCC-2998 colon
[11] = system: MDA-MB-435
[12] = system: NCI-H460 lung
[13] = system: SNB-19 CNS
[14] = system: HL-60(TB) leukemia
[15] = system: 786-0 renal
[16] = system: HCT-116 colon
[17] = system: SK-MEL-2 melanoma
[18] = system: SK-OV-3 ovarian
[19] = system: UACC-62 melanoma
[20] = system: MDA-MB-231 breast
[21] = system: SNB-75 CNS
[22] = system: COLO 205 colon
[23] = system: NCI-H226 lung
[24] = system: HCT-15 colon
[25] = system: OVCAR-8 ovarian
[26] = system: U251 CNS
[27] = system: EKVX NSCLC
[28] = system: RPMI-8226 leukemia
[29] = system: SK-MEL-28 melanoma
[30] = system: TK-10 renal
[31] = system: K-562 leukemia
[32] = system: SW-620 colon
[33] = system: OVCAR-4 ovarian
[34] = system: SR leukemia
[35] = system: NCI/ADR-RES ovarian
[36] = system: ACHN renal
[37] = system: SF-268 CNS
[38] = system: UO-31 renal
[39] = system: PC-3 prostate
[40] = system: NCI-H23 lung
[41] = system: CAKI-1 renal
[42] = system: HOP-92 NSCLC
[43] = system: IGROV1 ovarian
[44] = system: UACC-257 melanoma
[45] = system: DU-145 prostate
[46] = system: HS 578T breast
[47] = system: MCF7 breast
[48] = system: HOP-62 NSCLC
[49] = system: SF-539 CNS
[50] = system: CCRF-CEM leukemia
[51] = system: T-47D breast
[52] = system: OVCAR-3 ovarian
[53] = system: SN12C renal
[54] = system: MALME-3M melanoma
[55] = system: A498 renal
[56] = system: A549 NSCLC
[57] = system: OVCAR-5 ovarian
[58] = system: NCI-H522 lung

N#Cc1ccc(C(O)C(F)(F)c2nc3ccccc3o2)cc1 (stereo not given)
TGI [1]: > 100 µM
TGI [2]: > 100 µM
TGI [3]: > 100 µM
TGI [4]: > 100 µM
TGI [5]: > 100 µM
TGI [6]: > 100 µM
TGI [7]: > 100 µM
TGI [8]: > 100 µM
TGI [9]: > 100 µM
TGI [10]: > 100 µM
TGI [11]: > 100 µM
TGI [12]: > 100 µM
TGI [13]: > 100 µM
TGI [14]: > 100 µM
TGI [15]: > 100 µM
TGI [16]: > 100 µM
TGI [17]: > 100 µM
TGI [18]: > 100 µM
TGI [19]: > 100 µM
TGI [20]: > 100 µM
TGI [21]: > 100 µM
TGI [22]: > 100 µM
TGI [23]: > 100 µM
TGI [24]: > 100 µM
TGI [25]: > 100 µM
TGI [26]: > 100 µM
TGI [27]: > 100 µM
TGI [28]: > 100 µM
TGI [29]: > 100 µM
TGI [30]: > 100 µM
TGI [31]: 45.7 µM
TGI [32]: > 100 µM
TGI [33]: > 100 µM
TGI [34]: > 100 µM
TGI [35]: > 100 µM
TGI [36]: > 100 µM
TGI [37]: > 100 µM
TGI [38]: > 100 µM
TGI [39]: > 100 µM
TGI [40]: > 100 µM
TGI [41]: > 100 µM
TGI [42]: > 100 µM
TGI [43]: > 100 µM
TGI [44]: > 100 µM
TGI [45]: > 100 µM
TGI [46]: > 100 µM
TGI [47]: > 100 µM
TGI [48]: > 100 µM
TGI [49]: > 100 µM
TGI [50]: > 100 µM
TGI [51]: > 100 µM

COc1ccc2ncn(-c3cc(O[C@H](C)c4ccccc4C(F)(F)F)c(C(N)=O)s3)c2c1
GI50 [1]: 0.474 µM
TGI [1]: 7 µM
GI50 [2]: 0.0902 µM
TGI [2]: 3.72 µM
GI50 [3]: 0.0839 µM
TGI [3]: 3.21 µM
GI50 [4]: 0.169 µM
TGI [4]: 3.55 µM
GI50 [52]: 0.0858 µM
TGI [52]: 0.863 µM
GI50 [5]: 0.162 µM
TGI [5]: 6.16 µM
GI50 [6]: 0.122 µM
TGI [6]: 4.43 µM
GI50 [7]: 0.105 µM
TGI [7]: 3.56 µM
GI50 [8]: 0.0989 µM
TGI [8]: 3.23 µM
GI50 [9]: 0.0794 µM
TGI [9]: 3.04 µM
GI50 [10]: 0.161 µM
TGI [10]: 3.27 µM
GI50 [11]: 0.0466 µM
TGI [11]: 0.155 µM
GI50 [12]: 0.088 µM
TGI [12]: 2.99 µM
GI50 [13]: 1.88 µM
TGI [13]: 11.3 µM
GI50 [14]: 0.0905 µM
TGI [14]: 1.01 µM
GI50 [15]: 0.592 µM
TGI [15]: 5.79 µM
GI50 [16]: 0.125 µM
TGI [16]: 3.53 µM
GI50 [53]: 1.19 µM
TGI [53]: 7.74 µM
GI50 [17]: 0.12 µM
TGI [17]: 4.82 µM
GI50 [18]: 0.1 µM
TGI [18]: 5.56 µM
GI50 [54]: 4.5 µM
TGI [54]: 9.51 µM
GI50 [19]: 0.142 µM
TGI [19]: 4.58 µM
GI50 [20]: 0.167 µM
TGI [20]: 5.19 µM
GI50 [21]: 0.917 µM
TGI [21]: 6.6 µM
GI50 [22]: 0.0838 µM
TGI [22]: 3.24 µM
GI50 [55]: 0.0764 µM
TGI [55]: 0.597 µM
GI50 [56]: 0.119 µM
TGI [56]: 4.22 µM
GI50 [23]: 3.07 µM
TGI [23]: 12.4 µM
GI50 [24]: 0.134 µM
TGI [24]: 17.2 µM
GI50 [25]: 0.117 µM
TGI [25]: 8.81 µM
GI50 [26]: 0.166 µM
TGI [26]: 6.24 µM
GI50 [27]: 1.33 µM
TGI [27]: 13.1 µM
GI50 [28]: 0.627 µM
TGI [28]: 8.44 µM
GI50 [29]: 2.64 µM
TGI [29]: 8.54 µM
GI50 [57]: 0.162 µM
TGI [57]: 14.9 µM
GI50 [30]: 1.33 µM
TGI [30]: 7.22 µM
GI50 [31]: 0.109 µM
TGI [31]: 19.4 µM
GI50 [32]: 0.0749 µM
TGI [32]: 6.01 µM
GI50 [33]: 3.49 µM
TGI [33]: 16.1 µM
GI50 [35]: 0.0586 µM
TGI [35]: 0.185 µM
GI50 [36]: 3.17 µM
TGI [36]: 25 µM
GI50 [37]: 0.235 µM
TGI [37]: 8.95 µM
GI50 [38]: 1.79 µM
TGI [38]: 12.4 µM
GI50 [39]: 0.137 µM
TGI [39]: 15.3 µM
GI50 [40]: 0.113 µM
TGI [40]: 5.9 µM
GI50 [41]: 1.65 µM
TGI [41]: 17.5 µM
GI50 [42]: 0.143 µM
TGI [42]: 6.44 µM
GI50 [43]: 0.312 µM
TGI [43]: 10.5 µM
GI50 [44]: 2.55 µM
TGI [44]: 6.28 µM
GI50 [58]: 0.0995 µM
TGI [58]: 2.51 µM
GI50 [45]: 0.0784 µM
TGI [45]: 0.242 µM
GI50 [46]: 0.31 µM
TGI [46]: 7.18 µM
GI50 [47]: 0.0637 µM
TGI [47]: 13 µM
GI50 [48]: 0.105 µM
TGI [48]: 4.18 µM
GI50 [49]: 0.131 µM
TGI [49]: 4.07 µM
GI50 [50]: 0.0821 µM
TGI [50]: 14.5 µM
GI50 [51]: 2.86 µM
TGI [51]: 7.2 µM
